This note sets out measurements from patent US11564923B2, “Compounds and pharmaceutical compositions thereof for the treatment of inflammatory disorders” (Galapagos NV, priority 2017, dated 2023).

By IC50 is commonly meant the midpoint of a concentration-inhibition curve.

Assay [1] concerns the target T1, Recombinant human TYK2 catalytic domain (amino acids 871-1187) (Homo sapiens, UniProt P29597).
T1 construct: catalytic domain (amino acids 871-1187)
T1 sequence (P29597 871-1187): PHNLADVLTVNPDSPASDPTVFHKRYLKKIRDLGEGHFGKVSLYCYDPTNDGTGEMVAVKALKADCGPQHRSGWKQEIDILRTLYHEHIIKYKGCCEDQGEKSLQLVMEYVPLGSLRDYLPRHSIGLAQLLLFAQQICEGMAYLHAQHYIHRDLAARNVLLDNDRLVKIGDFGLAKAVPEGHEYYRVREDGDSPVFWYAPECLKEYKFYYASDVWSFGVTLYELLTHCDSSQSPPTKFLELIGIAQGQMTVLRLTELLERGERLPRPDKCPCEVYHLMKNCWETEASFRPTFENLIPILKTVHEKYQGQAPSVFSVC
Nature of the assay: TYK2 ADPglo kinase assay. Note: 12 µM ATP. Type of assay: biochemical. The procedure: After 120 min at room temperature, reactions were stopped and the remaining ATP is depleted by adding 5 μL/well of ADP Glo Reagent (Promega, catalog number V912B). After 40 min at room temperature, 10 μl Kinase Detection Reagent (Kinase Detection Substrate (Promega, catalog number V914B) dissolved in Kinase Detection Buffer (Promega, catalog number V913B)) is added to convert ADP to ATP and to measure this newly synthesized ATP in a luciferase/luciferin reaction. Readout is performed after 30 min incubation at room temperature using the Envision. Kinase activity is calculated by subtracting the relative light units (RLU) obtained in the presence of a positive control inhibitor (10 μM staurosporine) from the RLU obtained in the presence of vehicle. The ability of a test compound to inhibit this activity (or percentage inhibition) is determined as:
RLU test compound=RLU determined for sample with test compound present
RLU control=RLU determined for sample with positive control inhibitor
RLU vehicle=RLU determined in the presence of vehicle
Dose dilution series were prepared for the compounds enabling the testing of dose-response effects in the TYK2 assay and the calculation of the IC50 for the compound. Each compound is routinely tested at concentration of 20 μM followed by a 1/5 serial dilution, 10 points in a final concentration of 1% DMSO. […] The data are expressed as the average IC50 from the assays.
Background: ADP-Glo turns the ADP formed in a reaction into a luminescent signal.

In assay [2] the test system is IFNα activation of STAT1 in PBMC. Put plainly: IFNα activation of STAT1 in PBMC. The class given is cell-based. Particulars: Homo sapiens; IFNα activation of STAT1 in PBMC; average IC50; read-out: IFNα signaling inhibitory potency IC50. In short, it runs like this: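 Human PBMC, with red cells lysed by NH4Cl, were pre-treated with compound for 30 min at 37 °C and 5% CO2. They were then stimulated for 30 min with recombinant human IFNα at 5 ng/mL final.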

For assay [3], the system named is IL-12 activation of STAT4 in NK-92 cells. Nature of the assay: IL-12 activation of STAT4 in NK-92 cells using AphaLISA SureFire technology. Particulars: Homo sapiens, NK92; IL-12 activation of STAT4 in NK-92 cells, AlphaLISA SureFire; average IC50; read-out: IL12 pSTAT4 IC50. Type of assay: cell-based. A digest of the protocol: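 NK-92 cells, starved of rhIL-2 overnight, were stimulated with rhIL-12 for 30 min at 37 °C with test compounds, then lysed. Phospho-STAT4 (Tyr693) was read by AlphaLISA SureFire. Percent inhibition versus the vehicle-plus-trigger signal was fitted by sigmoidal nonlinear regression to give IC50, averaged over experiments.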
For orientation: Alpha assays give light when donor and acceptor beads are brought close together.

Assay [4] concerns the target T1, Recombinant human TYK2 catalytic domain (amino acids 871-1187). Nature of the assay: TYK2 radioactive assay polyGT substrate. Note: 0.1 µM ATP. Type of assay: biochemical. In short, it runs like this: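 Reaction at 30° C. for 120 min, ended with 150 mM phosphoric acid, washed, counted; percent inhibition scaled between vehicle and 10 μM staurosporine cpm.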
The test system of assay [5] is IFNα stimulation, Phospho-STAT1 on CD4+ cells in human whole blood. Nature of the assay: Human whole blood assay (hWBA), IFNα stimulation. The note with it: Universal type I IFN 1000 U/mL, pSTAT1 on CD4+ cells, read-out: IFN α IC50. The class given is cell-based. The procedure:
A flow cytometry analysis is performed to establish JAK1 and TYK2 compound potency ex vivo using human whole blood. Therefore, blood is taken from human volunteers who gave informed consent, then equilibrated for 30 min at 37° C. under gentle rocking and aliquoted in Eppendorf tubes. Compound is added at different concentrations and incubated at 37° C. for 30 min under gentle rocking and subsequently stimulated for 20 min at 37° C. under gentle rocking with interleukin 6 (IL-6) for JAK-dependent pathway stimulation or IFNα for TYK2-dependent pathway stimulation. Phospho-STAT1 is then evaluated using FACS analysis.
The remaining diluted Lyse/Fix buffer is discarded.
A 3-fold dilution series of the compound is prepared in DMSO (10 mM stock solution). Control-treated samples received DMSO instead of compound. All samples are incubated with a 1% final DMSO concentration.
Human blood is collected in heparinized tubes. The blood is divided in aliquots of 148.5 μL. Then, 1.5 μL of the test compound dilution is added to each blood aliquot and the blood samples are incubated for 30 min at 37° C. under gentle rocking. One and a half microliter of 10-fold diluted IL-6 stock solution or Universal type 1 IFN is added to the blood samples (final concentration 10 ng/mL and 1000 U/mL, respectively) and samples are incubated at 37° C. for 20 min under gentle rocking.
At the end of the stimulation period, 3 mL of 1× pre-warmed Lyse/Fix buffer is immediately added to the blood samples, vortexed briefly and incubated for 15 min at 37° C. in a water bath in order to lyse red blood cells and fix leukocytes.
Tubes are centrifuged for 5 min at 400×g at 4° C. The cell pellet is washed with 3 mL of cold 1×PBS, and after centrifugation the cell pellet is resuspended in 100 μL of ice-cold 1×PBS and 900 μL ice-cold 100% MeOH is added. Cells are then incubated at 4° C. for 30 min for permeabilization.
Permeabilized cells are then washed with 1×PBS containing 3% BSA and finally resuspended in 80 μL of 1×PBX containing 3% BSA.
Cells are then washed once with 1×PBS and analyzed on a FACSCanto II flow cytometer (BD Biosciences).
50,000 total events are counted and Phospho-STAT1 positive cells are measured after gating on CD4+ cells, in the lymphocyte gate.

As to `Cc1cc(C#N)ncc1Oc1cc(Nc2ccc(N3CCOC(C(C)C)C3)nn2)c2ncn(C)c2n1` (stereo in doubt) [Compound 173, 4-methyl-5-[3-methyl-7-[[6-[(2R)-2-propan-2-ylmorpholin-4-yl]pyridazin-3-yl]amino]imidazo[4,5-b]pyridin-5-yl]oxypyridine-2-carbonitrile], the IC50 is 1.3 nM in assay [1], 114 nM in assay [2] and 33 nM in assay [3].

In the case of `Cc1cc(C#N)ncc1Oc1cc(Nc2ccc(N3CCOC(C(C)C)C3)nn2)c2ncn(C)c2n1` (stereo in doubt) [Compound 177, 4-methyl-5-[3-methyl-7-[[6-[(2S)-2-propan-2-ylmorpholin-4-yl]pyridazin-3-yl]amino]imidazo[4,5-b]pyridin-5-yl]oxypyridine-2-carbonitrile], the figures for the IC50 in assay [1], in assay [2] and in assay [3] were 1.2 nM, 71 nM and 24 nM, respectively.

As to `Cc1cc(C#N)ncc1Oc1cc(Nc2ccc(C(=O)N3CCN(C4CC4)CC3)cn2)c2ncn(C)c2n1` [Compound 48, 5-[7-[[5-(4-cyclopropylpiperazine-1-carbonyl)pyridin-2-yl]amino]-3-methylimidazo[4,5-b]pyridin-5-yl]oxy-4-methylpyridine-2-carbonitrile], the IC50 was 0.84 nM in assay [4], 0.48 nM in assay [1], 63 nM in assay [2] and 56 nM in assay [3].

Regarding `Cc1cc(C#N)ncc1Oc1cc(Nc2ccc(C(=O)N3CC(C(C)(C)O)C3)cn2)c2ncn(C)c2n1` [Compound 102, 5-[7-[[5-[3-(1-hydroxy-1-methyl-ethyl)azetidine-1-carbonyl]-2-pyridyl]amino]-3-methyl-imidazo[4,5-b]pyridin-5-yl]oxy-4-methyl-pyridine-2-carbonitrile], the IC50 in assay [4] stood at 1.98 nM; in assay [2], 75 nM; in assay [3], 302 nM; in assay [5], 175 nM.

For `Cc1cc(C#N)ncc1Oc1cc(Nc2ccc(C(=O)N3CC(N(C)C)C3)cn2)c2ncn(C)c2n1` [Compound 106, 5-[7-[[5-[3-(dimethylamino)azetidine-1-carbonyl]-2-pyridyl]amino]-3-methyl-imidazo[4,5-b]pyridin-5-yl]oxy-4-methyl-pyridine-2-carbonitrile], the IC50 in assay [4] stood at 1.43 nM; in assay [2] it was 102 nM; in assay [3], 150 nM; in assay [5], 533 nM.

In the case of `Cc1cc(C#N)ncc1Oc1cc(Nc2ccc(N3CCO[C@@H](CO)C3)nn2)c2ncn(C)c2n1` [Compound 163, 5-[7-[[6-[(2R)-2-(hydroxymethyl)morpholin-4-yl]pyridazin-3-yl]amino]-3-methylimidazo[4,5-b]pyridin-5-yl]oxy-4-methylpyridine-2-carbonitrile], the IC50 in assay [1] was determined as 1.06 nM.

Take `Cc1cc(C#N)ncc1Oc1cc(Nc2ccc(N3CCO[C@H](CO)C3)nn2)c2ncn(C)c2n1` [Compound 165, 5-[7-[[6-[(2S)-2-(hydroxymethyl)morpholin-4-yl]pyridazin-3-yl]amino]-3-methylimidazo[4,5-b]pyridin-5-yl]oxy-4-methylpyridine-2-carbonitrile]: in assay [1], the IC50 worked out at 1.09 nM.

Take `Cc1cc(C#N)ncc1Oc1cc(Nc2ccc(N3CCCOCC3)nn2)c2ncn(C)c2n1` [Compound 167, 4-methyl-5-[3-methyl-7-[[6-(1,4-oxazepan-4-yl)pyridazin-3-yl]amino]imidazo[4,5-b]pyridin-5-yl]oxypyridine-2-carbonitrile]: the IC50 in assay [1] was 2.55 nM; in assay [2] it was 129 nM; in assay [3] it was 88 nM.

On to `Cc1cc(C#N)ncc1Oc1cc(Nc2ccc(N3CCOC(CO)C3)nn2)c2ncn(C)c2n1` (centres unmarked) [Compound 169, 5-[7-[[6-[2-(hydroxymethyl)morpholin-4-yl]pyridazin-3-yl]amino]-3-methylimidazo[4,5-b]pyridin-5-yl]oxy-4-methylpyridine-2-carbonitrile], for which the IC50 turned out to be 1.47 nM in assay [1], 147 nM in assay [2] and 665 nM in assay [3].

Regarding `Cc1cc(C#N)ncc1Oc1cc(Nc2ccc(N3CC4CCC(C3)O4)nn2)c2ncn(C)c2n1` [Compound 170, 4-methyl-5-[3-methyl-7-[[6-(8-oxa-3-azabicyclo[3.2.1]octan-3-yl)pyridazin-3-yl]amino]imidazo[4,5-b]pyridin-5-yl]oxypyridine-2-carbonitrile], the results for the IC50 in assay [1], in assay [2] and in assay [3] were 1.46 nM, 83 nM and 73 nM, respectively.

On to `Cc1cc(C#N)ncc1Oc1cc(Nc2ccc(N3CCOC(C#N)C3)nn2)c2ncn(C)c2n1` (centres unmarked) [Compound 171, 4-[6-[[5-(6-cyano-4-methylpyridin-3-yl)oxy-3-methylimidazo[4,5-b]pyridin-7-yl]amino]pyridazin-3-yl]morpholine-2-carbonitrile], for which the IC50 in assay [1] turned out to be 0.88 nM; in assay [2], 45 nM; in assay [3], 127 nM.

Regarding `Cc1cc(C#N)ncc1Oc1cc(Nc2ccc(N3CCO[C@H](C)C3)nn2)c2ncn(C)c2n1` [Compound 172, 4-methyl-5-[3-methyl-7-[[6-[(2R)-2-methylmorpholin-4-yl]pyridazin-3-yl]amino]imidazo[4,5-b]pyridin-5-yl]oxypyridine-2-carbonitrile], the values for the IC50 in assay [1], in assay [2] and in assay [3] were 0.92 nM, 66 nM and 58 nM, respectively.

For the compound `Cc1cc(C#N)ncc1Oc1cc(Nc2ccc(N3C[C@@H]4C[C@H]3CO4)nn2)c2ncn(C)c2n1` [Compound 174, 4-methyl-5-[3-methyl-7-[[6-[(1S,4S)-2-oxa-5-azabicyclo[2.2.1]heptan-5-yl]pyridazin-3-yl]amino]imidazo[4,5-b]pyridin-5-yl]oxypyridine-2-carbonitrile], the IC50 in assay [1] turned out to be 1.03 nM; in assay [2], 72 nM; in assay [3] it was 61 nM.

For `Cc1cc(C#N)ncc1Oc1cc(Nc2ccc(N3CCOC(C)(C)C3)nn2)c2ncn(C)c2n1` [Compound 175, 5-[7-[[6-(2,2-dimethylmorpholin-4-yl)pyridazin-3-yl]amino]-3-methylimidazo[4,5-b]pyridin-5-yl]oxy-4-methylpyridine-2-carbonitrile], the IC50 in assay [1] came to 2.64 nM; in assay [2], 94 nM; in assay [3] it was 137 nM.
